Counter-ions that a name gives are not always drawn.
Each molecule was assayed against factor Xa (Homo sapiens, UniProt P00742) (assay: In vitro Factor Xa assay (Test 1a), chromogenic substrate S-2765). Conditions: Factor Xa inhibitory activity; Ki from IC50 corrected for substrate competition; 25° C., pH 7.8; read-out: Ki (FXa).
Assay type: biochemical
Design: purchased Enzyme Research Laboratories, Inc; South Bend, Ind
Experimental: Purified enzymes are used in chromogenic assays. To determine the inhibition constant, the IC50 value is corrected for competition with substrate using the formula: […] where Km is the Michaelis-Menten-constant (Y.-C. Chen and W. H. Prusoff, Biochem. Pharmacol. 22: […] (1973), which is incorporated herein by reference). TBS-PEG buffer (50 mM Tris-Cl, pH 7.8, 200 mM NaCl, 0.05% (w/v) PEG-8000, 0.02% (w/v) NaN3) is used for this assay. The IC50 is determined by combining in appropriate wells of a Costar half-area microtiter plate 25 μl human factor Xa (Enzyme Research Laboratories, Inc.; South Bend, Ind.) in TBS-PEG; 40 μl 10% (v/v) DMSO in TBS-PEG (uninhibited control) or various concentrations of the compound to be tested diluted in 10% (v/v) DMSO in TBS-PEG; and substrate S-2765 (N-benzyloxycarbonyl-[…]-nitroanilide; Kabi Pharmacia, Inc.; Franklin Ohio) in TBS-PEG. […] The initial velocity of chromogenic substrate hydrolysis is measured by the change in absorbance at 405 nm using a Bio-tek Instruments kinetic plate reader ([…] 25° C. during the linear portion of the time course (usually 1.5 min after addition of substrate).

factor Xa, sequence (P00742 235-488 limits assumed): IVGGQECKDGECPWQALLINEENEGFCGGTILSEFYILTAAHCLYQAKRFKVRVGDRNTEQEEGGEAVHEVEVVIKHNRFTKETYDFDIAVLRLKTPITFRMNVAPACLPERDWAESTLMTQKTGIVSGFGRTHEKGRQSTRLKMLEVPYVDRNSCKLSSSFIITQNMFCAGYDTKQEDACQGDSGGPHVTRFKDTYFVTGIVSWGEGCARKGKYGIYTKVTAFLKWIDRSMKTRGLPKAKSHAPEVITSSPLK
factor Xa, sequence (P00742 41-179 partner limits assumed): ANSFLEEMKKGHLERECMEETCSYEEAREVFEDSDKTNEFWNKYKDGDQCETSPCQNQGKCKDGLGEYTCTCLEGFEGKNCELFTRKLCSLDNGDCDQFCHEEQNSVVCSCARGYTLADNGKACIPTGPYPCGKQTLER

Row | Ki | SMILES
1 | 153 nM | CCCC[C@H](NC(=O)C(Cc1ccc(C(=N)N)cc1)C(=O)Nc1ccccc1)C(=O)N[C@@H](CCCNC(=N)N)C(N)=O (stereo partly drawn) [Example 30, 2-(4-Carbamimidoyl-benzyl)-N-[1-(S)-(1-(S)-carbamoyl-4-guanidino-butylcarbamoyl)-pentyl]-N′-phenyl-malonamide trifluoroactic acid salt]
2 | 1100 nM | N=C(N)NCCC[C@H](NC(=O)[C@H](Cc1ccc2ccccc2c1)NC(=O)C(Cc1ccc(C(=N)N)cc1)C(=O)Nc1ccccc1)C(N)=O (stereo partly drawn) [Example 38, 2-(4-Carbamimidoyl-benzyl)-N-[1-(S)-(1-(S)-carbamoyl-4-guanidino-butylcarbamoyl)-2-naphthalen-2-yl-ethyl]-N′-phenyl-malonamide trifluoroacetic acid]
3 | 10.7 nM | CN(C)C(=O)C(Cc1ccc(C(=N)N)cc1)C(=O)N[C@@H](CCc1ccccc1)C(=O)N[C@@H](CCCNC(=N)N)C(N)=O (stereo partly drawn) [Example 40, 2-(4-Carbamimidoyl-benzyl)-N-[1-(S)-(1-(S)-carbamoyl-4-guanidino-butylcarbamoyl)-3-phenyl-propyl]-N′,N′-dimethyl-malonamide trifluoroacetic acid salt]
4 | 26500 nM | C=CCNC(=O)C(Cc1ccc(C(=N)N)cc1)C(=O)N[C@@H](CCCN)C(=O)N[C@@H](CCCNC(=N)N)C(N)=O (stereo partly drawn) [Example 45, N-Allyl-N′-[4-amino-1-(S)-(1-(S)-carbamoyl-4-guanidino-butylcarbamoyl)-butyl]-2-(4-carbamimidoyl-benzyl)-malonamide trifluoroacetic acid salt]
5 | 3010 nM | N=C(N)NCCC[C@H](NC(=O)[C@H](CO)NC(=O)C(Cc1ccc(C(=N)N)cc1)C(=O)Nc1ccccc1)C(N)=O (stereo partly drawn) [Example 54, 2-(4-Carbamimidoyl-benzyl)-N-[1-(S)-(1-(S)-carbamoyl-4-guanidino-butylcarbamoyl)-2-hydroxy-ethyl]-N′-phenyl-malonamide trifluoroacetic acid salt]
6 | 2.1 nM | CN(C)C(=O)C(Cc1ccc(C(=N)N)cc1)C(=O)N[C@H](C(=O)N[C@@H](CCCNC(=N)N)C(N)=O)c1ccccc1 (stereo partly drawn) [Example 56, 2-(4-Carbamimidoyl-benzyl)-N-[(S)-(1-(S)-carbamoyl-4-guanidino-butylcarbamoyl)-phenyl-methyl]-N′,N′-dimethyl-malonamide trifluoroacetic acid salt]
7 | 57.5 nM | N=C(N)NCCC[C@H](NC(=O)[C@@H](NC(=O)C(Cc1ccc(C(=N)N)cc1)C(=O)Nc1ccccc1)c1ccccc1)C(N)=O (stereo partly drawn) [Example 58, 2-(4-Carbamimidoyl-benzyl)-N-[(S)-(1-(S)-carbamoyl-4-guanidino-butylcarbamoyl)-phenyl-methyl]-N′-phenyl-malonamide trifluoroacetic acid salt]
8 | 957 nM | C=CCNC(=O)C(Cc1ccc(C(=N)N)cc1)C(=O)N[C@@H](COCc1ccccc1)C(=O)N[C@@H](CCCNC(=N)N)C(N)=O (stereo partly drawn) [Example 61, N-Allyl-N′-[2-benzyloxy-1-(S)-(1-(S)-carbamoyl-4-guanidino-butylcarbamoyl)-ethyl]-2-(4-carbamimidoyl-benzyl)-malonamide trifluoroacetic acid salt]
9 | 285 nM | CN(C)C(=O)C(Cc1ccc(C(=N)N)cc1)C(=O)N[C@@H](CCC(=O)O)C(=O)N[C@@H](CCCNC(=N)N)C(=O)N[C@@H](CC1CCCCC1)C(N)=O (stereo partly drawn) [Example 69, 4-(S)-[3-(4-Carbamimidoyl-phenyl)-2-dimethylcarbamoyl-propionylamino]-4-[1-(S)-(1-(S)-carbamoyl-2-cyclohexyl-ethylcarbamoyl)-4-guanidino-butylcarbamoyl]-butyric acid trifluoroacetic acid salt]
10 | 4300 nM | CCCC[C@@H](NC(=O)C(Cc1ccc(C(=N)N)cc1)C(=O)N(C)C)C(=O)N[C@@H](CCCNC(=N)N)C(=O)O (stereo partly drawn) [Example 72, 2-(S)-{2-(R)-[3-(4-Carbamimidoyl-phenyl)-2-dimethylcarbamoyl-propionylamino]-hexanoylamino}-5-guanidino-pentanoic acid trifluoroacetic acid salt]

Source: patent US6794365B2, “Malonic acid derivatives, processes for their preparation their use and pharmaceutical compositions containing them” (Aventis Pharma Deutschland GmbH, priority 2000, dated 2004)
